Literature values, collected in US6610702B2, “Ammonium salts of inositol hexaphosphate, and uses thereof” (GMP Oxycell, Inc., priority 2000, dated 2003).
Read-outs that look alike come from different tables or passages of the source.

Assays:
[1] = molecular target: allosteric site on hemoglobin (Homo sapiens, UniProt P68871); settings: displaces hemoglobin-bound 2,3-DPG; cited from earlier work
stripped hemoglobin = stripped hemoglobin (Homo sapiens, UniProt P68871); settings: pH 7.4, cited from earlier work
human RBCs = settings: IHP encapsulated in human RBCs by continuous-flow electroporation; cited from earlier work
[2] = buffer 100 mM sodium phosphate, pH 7.0; cited from earlier work

Sequence of stripped hemoglobin (P68871 2-147 limits assumed): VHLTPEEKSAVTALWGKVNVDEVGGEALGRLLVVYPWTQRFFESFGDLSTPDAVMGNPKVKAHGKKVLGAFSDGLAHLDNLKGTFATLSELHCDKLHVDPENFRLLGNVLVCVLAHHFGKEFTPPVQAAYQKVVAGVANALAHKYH
Sequence of stripped hemoglobin (P69905 2-142 partner limits assumed): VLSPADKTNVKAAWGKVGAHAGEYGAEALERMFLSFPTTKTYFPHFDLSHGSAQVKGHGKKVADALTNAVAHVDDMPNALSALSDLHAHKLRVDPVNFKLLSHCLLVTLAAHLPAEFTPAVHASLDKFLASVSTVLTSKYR
Sequence of allosteric site on hemoglobin (P68871 2-147 limits assumed): as the sequence (P68871 2-147 limits assumed) above
Sequence of allosteric site on hemoglobin (P69905 2-142 partner limits assumed): as the sequence (P69905 2-142 partner limits assumed) above

Structure (SMILES) | affinity for the allosteric site relative to 2,3-DPG [1] | half-saturation pressure P(O2) (½) of stripped hemoglobin (stripped hemoglobin; 25 C., stripped hemoglobin alone 4.3) | half-saturation pressure P(O2) (½) of stripped hemoglobin (stripped hemoglobin; 37 C., stripped hemoglobin alone 9.3) | P50 of modified RBCs (human RBCs) | Octanol/buffer partition coefficient [2]
O=P(O)(O)O[C@H]1[C@H](OP(=O)(O)O)[C@@H](OP(=O)(O)O)[C@H](OP(=O)(O)O)[C@@H](OP(=O)(O)O)[C@H]1OP(=O)(O)O [IHP, inositol hexaphosphate] | one-thousand times greater affinity | 48.4 mm Hg | 96.4 mm Hg | approximately 50 torr | 
Cc1cn([C@H]2CC(O)[C@@H](CO)O2)c(=O)[nH]c1=O (some centres unmarked) |  |  |  |  | 0.064
